Values after ≈ are worked out from the molar mass of the structure shown.
Legend:
[1] = molecular target: Sodium channel protein type 5 subunit alpha (Homo sapiens, UniProt Q14524)
[2] = in vitro; details: dog, MDCK
[3] = physchem; details: phosphate buffer
[4] = in vitro; details: PAMPA
[5] = in vivo; details: Sprague-Dawley, rat, po
[6] = rat, in vivo, po
[7] = in vivo; details: Sprague-Dawley, rat, iv
[8] = in vivo; details: Sprague-Dawley, rat, po; remark: listed apart in the source
[9] = physchem; details: octanol/water
[10] = molecular target: Voltage-gated inwardly rectifying potassium channel KCNH2 (Homo sapiens, UniProt Q12809);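 further: hERG channel blockade measured by electrophysiology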
[11] = rat, microsomes, 0.5 h, 0.5 µM
[12] = human, microsomes, 0.5 h, 0.5 µM
[13] = system: MDR1; assay: in vitro; details: dog, MDCK-MDR1
[14] = molecular target: Sodium channel protein type 2 subunit alpha (Homo sapiens, UniProt Q99250); assay: Inhibition of recombinant human Nav1.2 expressed in HEK293 cells incubated for 3 mins by FRET based membrane potential assay; type: cell-based
[15] = Drug concentration in plasma of Sprague-Dawley rat model of L5/L6 spinal nerve ligation-induced neuropathic pain at 100 mg/kg, po by LC/MS analysis; type: ADME, organism-based; details: in vivo
[16] = Drug concentration in brain of Sprague-Dawley rat model of L5/L6 spinal nerve ligation-induced neuropathic pain at 10 mg/kg, po by LC/MS analysis; type: ADME, organism-based; details: in vivo
[17] = system: Rattus norvegicus; assay: Antiallodynic activity in Sprague-Dawley rat model of L5/L6 spinal nerve ligation-induced neuropathic pain assessed as maximal possible effect at 30 mg/kg, po; type: functional
[18] = Drug concentration in plasma of Sprague-Dawley rat model of L5/L6 spinal nerve ligation-induced neuropathic pain at 30 mg/kg, po by LC/MS analysis; type: ADME, organism-based; details: in vivo
[19] = Drug concentration in brain of Sprague-Dawley rat model of L5/L6 spinal nerve ligation-induced neuropathic pain at 30 mg/kg, po by LC/MS analysis; type: ADME, organism-based; details: in vivo
[20] = system: Rattus norvegicus; assay: Antiallodynic activity in Sprague-Dawley rat model of L5/L6 spinal nerve ligation-induced neuropathic pain assessed as maximal possible effect at 10 mg/kg, po; type: functional
[21] = molecular target: Sodium channel protein type 9 subunit alpha (Homo sapiens, UniProt Q15858)
[22] = Drug concentration in plasma of Sprague-Dawley rat model of L5/L6 spinal nerve ligation-induced neuropathic pain at 10 mg/kg, po by LC/MS analysis; type: ADME, organism-based; details: in vivo
[23] = Ratio of free drug concentration in brain to plasma of rat; type: ADME, cell-free; details: brain and plasma
[24] = Drug concentration in brain of Sprague-Dawley rat model of L5/L6 spinal nerve ligation-induced neuropathic pain at 100 mg/kg, po by LC/MS analysis; type: ADME, organism-based; details: in vivo
[25] = molecular target: Sodium channel protein type 10 subunit alpha (Homo sapiens, UniProt Q9Y5Y9); assay: Inhibition of human Nav1.8 by FRET based membrane potential assay
[26] = system: Rattus norvegicus; assay: Antiallodynic activity in Sprague-Dawley rat model of L5/L6 spinal nerve ligation-induced neuropathic pain assessed as maximal possible effect at 100 mg/kg, po; type: functional
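Wherever logD is given: distribution coefficient quantified using high-throughput LC-MS.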
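Wherever solubility is given: determined using a high-throughput solubility method.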

Chain of Voltage-gated inwardly rectifying potassium channel KCNH2 (Q12809 whole entry): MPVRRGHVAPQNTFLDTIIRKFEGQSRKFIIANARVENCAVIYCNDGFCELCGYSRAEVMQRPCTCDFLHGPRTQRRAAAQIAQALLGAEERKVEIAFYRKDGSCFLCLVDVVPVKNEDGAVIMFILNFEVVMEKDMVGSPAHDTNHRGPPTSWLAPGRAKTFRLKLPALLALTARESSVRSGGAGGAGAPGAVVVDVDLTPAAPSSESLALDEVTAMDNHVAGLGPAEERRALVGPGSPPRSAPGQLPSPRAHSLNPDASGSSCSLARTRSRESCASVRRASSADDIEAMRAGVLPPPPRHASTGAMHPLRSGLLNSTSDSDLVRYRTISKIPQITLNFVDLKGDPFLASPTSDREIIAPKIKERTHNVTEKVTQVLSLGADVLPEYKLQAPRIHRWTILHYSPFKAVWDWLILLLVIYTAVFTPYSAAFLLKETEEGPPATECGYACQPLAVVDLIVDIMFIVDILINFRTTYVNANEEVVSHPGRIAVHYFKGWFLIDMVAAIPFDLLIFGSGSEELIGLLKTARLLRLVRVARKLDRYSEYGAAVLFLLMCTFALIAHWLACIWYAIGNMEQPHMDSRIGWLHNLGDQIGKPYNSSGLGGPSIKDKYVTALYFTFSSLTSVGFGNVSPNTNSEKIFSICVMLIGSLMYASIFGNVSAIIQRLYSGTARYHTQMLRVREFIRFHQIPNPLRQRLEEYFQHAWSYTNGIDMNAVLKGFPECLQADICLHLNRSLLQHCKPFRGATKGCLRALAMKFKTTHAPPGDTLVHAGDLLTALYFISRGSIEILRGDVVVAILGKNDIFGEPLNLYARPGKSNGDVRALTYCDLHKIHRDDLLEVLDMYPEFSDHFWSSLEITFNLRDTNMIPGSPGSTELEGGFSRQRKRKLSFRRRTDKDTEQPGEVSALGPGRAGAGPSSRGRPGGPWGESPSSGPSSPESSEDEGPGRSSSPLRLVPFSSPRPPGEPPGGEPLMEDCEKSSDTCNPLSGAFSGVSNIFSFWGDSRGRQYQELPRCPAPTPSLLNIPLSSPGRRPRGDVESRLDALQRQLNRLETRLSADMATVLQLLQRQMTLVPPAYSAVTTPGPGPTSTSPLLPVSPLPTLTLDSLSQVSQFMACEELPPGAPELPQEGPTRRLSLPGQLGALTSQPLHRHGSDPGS
Chain of Sodium channel protein type 5 subunit alpha (Q14524 whole entry): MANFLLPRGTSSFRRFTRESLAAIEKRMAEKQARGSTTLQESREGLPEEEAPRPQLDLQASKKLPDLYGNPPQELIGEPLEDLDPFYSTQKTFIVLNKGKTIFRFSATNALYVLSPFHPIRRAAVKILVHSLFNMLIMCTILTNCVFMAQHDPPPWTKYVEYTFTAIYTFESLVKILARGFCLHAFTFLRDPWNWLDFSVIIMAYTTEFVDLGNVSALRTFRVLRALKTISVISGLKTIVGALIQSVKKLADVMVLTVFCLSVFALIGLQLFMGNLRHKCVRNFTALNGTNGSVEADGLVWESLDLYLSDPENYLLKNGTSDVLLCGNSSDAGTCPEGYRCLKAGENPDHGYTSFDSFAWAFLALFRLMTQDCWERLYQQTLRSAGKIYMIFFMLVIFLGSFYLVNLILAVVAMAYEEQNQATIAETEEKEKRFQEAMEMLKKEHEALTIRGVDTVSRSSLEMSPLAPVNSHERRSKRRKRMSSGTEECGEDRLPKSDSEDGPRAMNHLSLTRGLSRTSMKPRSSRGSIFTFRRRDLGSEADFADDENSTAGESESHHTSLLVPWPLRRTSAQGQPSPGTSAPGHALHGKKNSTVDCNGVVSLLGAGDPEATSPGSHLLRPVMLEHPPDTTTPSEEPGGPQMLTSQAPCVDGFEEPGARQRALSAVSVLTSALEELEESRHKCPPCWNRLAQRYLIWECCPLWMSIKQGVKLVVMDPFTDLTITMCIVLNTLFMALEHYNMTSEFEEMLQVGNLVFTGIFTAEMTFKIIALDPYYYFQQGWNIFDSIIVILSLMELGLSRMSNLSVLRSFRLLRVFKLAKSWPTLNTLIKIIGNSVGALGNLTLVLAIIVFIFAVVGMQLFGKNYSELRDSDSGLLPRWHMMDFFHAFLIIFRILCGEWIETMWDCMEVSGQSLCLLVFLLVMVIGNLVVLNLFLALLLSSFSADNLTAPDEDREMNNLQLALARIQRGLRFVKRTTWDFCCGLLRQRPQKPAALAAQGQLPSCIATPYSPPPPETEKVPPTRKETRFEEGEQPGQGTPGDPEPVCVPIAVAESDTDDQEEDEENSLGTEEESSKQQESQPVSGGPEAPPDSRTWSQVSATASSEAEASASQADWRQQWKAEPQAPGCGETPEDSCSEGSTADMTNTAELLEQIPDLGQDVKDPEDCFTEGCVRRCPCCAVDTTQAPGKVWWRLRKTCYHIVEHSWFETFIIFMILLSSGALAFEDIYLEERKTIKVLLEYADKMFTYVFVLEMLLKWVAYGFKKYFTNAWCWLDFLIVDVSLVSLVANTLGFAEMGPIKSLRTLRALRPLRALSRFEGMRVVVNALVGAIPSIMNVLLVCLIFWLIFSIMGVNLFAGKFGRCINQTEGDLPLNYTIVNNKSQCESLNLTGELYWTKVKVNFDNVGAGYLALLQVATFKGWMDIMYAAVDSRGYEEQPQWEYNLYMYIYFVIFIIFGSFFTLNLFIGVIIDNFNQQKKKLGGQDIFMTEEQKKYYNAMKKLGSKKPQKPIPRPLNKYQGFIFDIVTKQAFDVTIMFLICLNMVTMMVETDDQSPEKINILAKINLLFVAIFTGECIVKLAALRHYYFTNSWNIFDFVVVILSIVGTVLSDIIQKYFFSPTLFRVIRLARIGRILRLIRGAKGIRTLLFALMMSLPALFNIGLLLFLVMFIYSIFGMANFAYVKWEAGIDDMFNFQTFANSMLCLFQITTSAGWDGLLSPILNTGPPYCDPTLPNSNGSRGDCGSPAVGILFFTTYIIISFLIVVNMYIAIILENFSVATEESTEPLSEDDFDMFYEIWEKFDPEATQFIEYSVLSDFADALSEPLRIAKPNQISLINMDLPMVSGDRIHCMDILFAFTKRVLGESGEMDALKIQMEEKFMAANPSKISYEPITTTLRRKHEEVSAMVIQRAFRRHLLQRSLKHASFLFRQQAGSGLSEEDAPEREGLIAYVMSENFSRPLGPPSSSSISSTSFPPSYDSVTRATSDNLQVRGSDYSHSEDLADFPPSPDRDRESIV
Chain of Sodium channel protein type 9 subunit alpha (Q15858 whole entry, looked up): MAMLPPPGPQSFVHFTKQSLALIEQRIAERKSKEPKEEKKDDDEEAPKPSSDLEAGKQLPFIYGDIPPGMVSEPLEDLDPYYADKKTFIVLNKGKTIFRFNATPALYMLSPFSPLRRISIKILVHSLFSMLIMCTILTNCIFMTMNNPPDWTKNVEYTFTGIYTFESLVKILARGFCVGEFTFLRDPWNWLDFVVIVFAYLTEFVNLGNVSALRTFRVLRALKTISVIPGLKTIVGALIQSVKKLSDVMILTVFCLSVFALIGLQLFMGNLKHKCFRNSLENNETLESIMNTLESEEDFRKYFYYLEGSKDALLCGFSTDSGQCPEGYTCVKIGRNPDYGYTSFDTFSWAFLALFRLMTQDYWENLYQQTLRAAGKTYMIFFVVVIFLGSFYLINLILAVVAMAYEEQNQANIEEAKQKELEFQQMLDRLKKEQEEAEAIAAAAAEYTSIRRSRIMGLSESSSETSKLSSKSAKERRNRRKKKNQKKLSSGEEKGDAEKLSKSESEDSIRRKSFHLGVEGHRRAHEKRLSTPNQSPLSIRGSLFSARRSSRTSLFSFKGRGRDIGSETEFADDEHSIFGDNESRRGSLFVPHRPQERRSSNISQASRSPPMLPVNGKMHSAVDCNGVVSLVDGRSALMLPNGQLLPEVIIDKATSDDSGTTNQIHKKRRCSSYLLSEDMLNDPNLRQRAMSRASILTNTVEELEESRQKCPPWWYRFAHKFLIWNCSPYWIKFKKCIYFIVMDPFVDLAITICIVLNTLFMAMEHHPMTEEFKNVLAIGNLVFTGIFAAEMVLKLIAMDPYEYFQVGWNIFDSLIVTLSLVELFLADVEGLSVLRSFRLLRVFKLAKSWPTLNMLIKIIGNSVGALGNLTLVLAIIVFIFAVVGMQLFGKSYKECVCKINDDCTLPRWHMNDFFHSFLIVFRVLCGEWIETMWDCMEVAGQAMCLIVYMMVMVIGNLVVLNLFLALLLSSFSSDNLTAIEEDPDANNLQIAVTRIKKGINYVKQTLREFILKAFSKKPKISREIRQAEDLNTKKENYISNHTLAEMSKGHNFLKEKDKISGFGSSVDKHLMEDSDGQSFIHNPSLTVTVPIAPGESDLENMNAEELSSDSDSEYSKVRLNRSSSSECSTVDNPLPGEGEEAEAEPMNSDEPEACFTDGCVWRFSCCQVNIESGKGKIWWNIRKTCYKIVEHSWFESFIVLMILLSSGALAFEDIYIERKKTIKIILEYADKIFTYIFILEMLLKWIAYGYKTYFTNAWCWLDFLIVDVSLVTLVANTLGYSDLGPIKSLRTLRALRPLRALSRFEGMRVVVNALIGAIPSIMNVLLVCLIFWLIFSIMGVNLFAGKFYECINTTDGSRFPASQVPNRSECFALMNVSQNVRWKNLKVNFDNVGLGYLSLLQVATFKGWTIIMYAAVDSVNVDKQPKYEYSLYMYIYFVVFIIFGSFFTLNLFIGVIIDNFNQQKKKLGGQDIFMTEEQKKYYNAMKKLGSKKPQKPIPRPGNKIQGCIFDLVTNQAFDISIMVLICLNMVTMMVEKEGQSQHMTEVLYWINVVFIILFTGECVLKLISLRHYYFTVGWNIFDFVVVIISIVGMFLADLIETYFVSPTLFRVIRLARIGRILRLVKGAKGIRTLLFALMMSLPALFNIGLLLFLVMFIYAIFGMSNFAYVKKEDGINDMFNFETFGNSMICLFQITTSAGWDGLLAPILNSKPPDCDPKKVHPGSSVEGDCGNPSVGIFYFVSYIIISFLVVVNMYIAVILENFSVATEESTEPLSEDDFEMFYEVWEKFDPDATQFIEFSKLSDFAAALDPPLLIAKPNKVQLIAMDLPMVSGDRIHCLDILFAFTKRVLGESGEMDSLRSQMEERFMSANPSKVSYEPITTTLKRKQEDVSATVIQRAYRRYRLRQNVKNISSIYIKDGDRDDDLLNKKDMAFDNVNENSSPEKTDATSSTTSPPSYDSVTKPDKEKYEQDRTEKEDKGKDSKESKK

Row | SMILES | IC50 [1] [µM] | Papp [2] [×10⁻⁶ cm/s] | solubility [3] [µM] | Papp [4] [×10⁻⁶ cm/s] | clearance [7] [mL/min/kg] | bioavailability [8] [%] | logD [9] | IC50 [10] [µM] | also measured
1 | O=C(c1ccc2cc(Oc3ccc(C(F)(F)F)cn3)ccc2n1)N1CCN(CC(F)(F)F)CC1 | 33 | 24.6 | 46 (≈ 22.3 µg/mL) | – | – | – | – | – | –
2 | O=C(NC1CCC1)c1ccc2cc(Oc3ccc(C(F)(F)F)cn3)ccc2n1 | 31.3 | – | 5 (≈ 1.94 µg/mL) | 3.4 | – | – | – | – | –
3 | O=C(c1ccc2cc(Oc3ccc(C(F)(F)F)cn3)ccc2n1)N1CCNC(C(F)(F)F)C1 (stereo unspecified) | 33 | – | 78 (≈ 36.7 µg/mL) | 24.3 | 40.5 | 106 | – | – | half-life [5]: 190 min; Vdss [6]: 9.23 L/kg
4 | O=C(c1ccc2cc(Oc3ccc(OC(F)(F)F)cn3)ccc2n1)N1CCNCC1 | – | – | 150 (≈ 62.8 µg/mL) | 5.1 | – | 92 | 3.4 | 12.8 | half-life [5]: 756 min
5 | O=C(c1ccc2cc(Oc3cccc(C(F)(F)F)n3)ccc2n1)N1CCNCC1 | – | 52.2 | 200 (≈ 80.5 µg/mL) | – | 83.3 | – | 3 | 12.8 | –
6 | O=C(c1ccc2cc(Oc3cc(C(F)(F)F)ccn3)ccc2n1)N1CCNCC1 | – | 49 | 200 (≈ 80.5 µg/mL) | – | 115 | 91 | 3.4 | 7.3 | –
7 | N#Cc1ccc(Oc2ccc3nc(OCC(=O)NCC(N)=O)ccc3c2)cc1 | – | 12.8 | 0.824 (≈ 0.31 µg/mL) | – | – | – | 3 | > 30 | CLH [11]: < 3 L/h/kg; CLH [12]: 2 L/h/kg; efflux ratio [13]: 14.9
8 | O=C(COc1ccc2cc(Oc3ccccn3)ccc2n1)N1CCNCC1 | – | 29.4 | 200 (≈ 72.9 µg/mL) | – | – | – | 2.7 | – | CLH [11]: 12 L/h/kg; CLH [12]: 11 L/h/kg
9 | O=C(N[C@@H]1CCOC1=O)c1ccc2cc(Oc3ccc(C(F)(F)F)cn3)ccc2n1 | 33 | – | 5 (≈ 2.09 µg/mL) | 32.7 | – | – | – | – | –
10 | N#Cc1ccc(Oc2ccc3nc(C(=O)N4CCNCC4)ccc3c2)cc1 | – | 0.4 | 194 (≈ 69.5 µg/mL) | – | < 33.3 | 89 | 2.6 | 5.2 | –
11 | O=C(COc1ccc2cc(Oc3ccc(C(F)(F)F)cn3)ccc2n1)N1CCCCC1 | – | 38.6 | 48 (≈ 20.7 µg/mL) | – | – | – | – | – | CLH [11]: 55 L/h/kg; CLH [12]: 14 L/h/kg
12 | O=C(c1ccc2cc(Oc3cnc(C(F)(F)F)cn3)ccc2n1)N1CCNCC1 | – | – | 149 (≈ 60.1 µg/mL) | 3.8 | – | – | 2.7 | 18.6 | efflux ratio [13]: 16.1
13 | O=C(c1ccc2cc(Oc3ccc(C(F)(F)F)cn3)ccc2n1)N1CCCC1 | 33 | – | – | – | – | – | – | – | –
14 | N#Cc1ccc(Oc2ccc3c(ccc(=O)n3CCN3CCCCC3)c2)cc1 | 1.6 | – | 140 (≈ 52.3 µg/mL) | 3.7 | 52.7 | 17 | 3.4 | < 1 | IC50 [14]: 3.4 µM; Cp [15]: 1.27 µg/mL; Ct [16]: 0.56 µg/mL; MPE [17]: 53%; Cp [18]: 0.47 µg/mL; Ct [19]: 1.05 µg/mL; MPE [20]: 54%; IC50 [21]: 2280 nM; CLH [11]: 38 L/h/kg; Cp [22]: 0.29 µg/mL; Kp uu [23]: 0.45; CLH [12]: 9 L/h/kg; Ct [24]: 3.38 µg/mL; IC50 [25]: 80 nM; MPE [26]: 89%
15 | O=C(c1ccc2cc(Oc3ccc(C(F)(F)F)cn3)ccc2n1)N1CC[C@H](F)C1 | 33 | – | 55 (≈ 22.3 µg/mL) | 31.6 | 12.8 | 104 | – | – | half-life [5]: 220 min; Vdss [6]: 6.47 L/kg
16 | CS(=O)(=O)C1CN(C(=O)c2ccc3cc(Oc4ccc(C(F)(F)F)cn4)ccc3n2)C1 | – | – | 18 (≈ 8.13 µg/mL) | 21.5 | – | 126 | – | – | half-life [5]: 204 min
17 | N#Cc1ccc(COc2ccc3nc(C(=O)N4CCNCC4)ccc3c2)cc1 | – | – | 143 (≈ 53.3 µg/mL) | 2.7 | – | – | 2.9 | 5.61 | efflux ratio [13]: 23.4
18 | O=C(c1ccc2cc(Oc3ncc(C(F)(F)F)cn3)ccc2n1)N1CCNCC1 | – | – | 138 (≈ 55.7 µg/mL) | 1.5 | – | – | 2.1 | – | –
19 | N#Cc1ccc(-c2ccc3c(ccc(=O)n3CCN3CCCCC3)c2)cc1 | – | – | – | 8.3 | – | – | – | < 1 | CLH [11]: 6 L/h/kg; CLH [12]: 2 L/h/kg
